Patent US20100226987A1, “TARGETING CONJUGATES COMPRISING ACTIVE AGENTS ENCAPSULATED IN CYCLODEXTRIN-CONTAINING POLYMERS” (CAPSUTECH LTD., priority 2007, published 2010)

Tested on: human nasopharyngeal KB cancer cells, which overexpress the folate receptor (FR)
Test: In vitro binding of RhB-encapsulating conjugates to KB cells (fluorescence counting and fluorescence microscopy)
Format: cell-based
Settings: control = mixture of non-encapsulated RhB, free CD derivative, PEG and FA, FIGS. 1A-1B
Procedure: Cell culture. KB cells (ATCC CCL-17) were obtained from ATCC and grown on Minimum essential medium (Eagle) with 2 mM L-glutamine; 0.1 mM non-essential amino acids; 0.2 Earle's BSS adjusted to contain 1.5 g/l sodium bicarbonate; and 1.0 mM sodium pyruvate, 90%; heat inactivated fetal bovine serum, 10%. Cells were subcultured according to the ATCC recommended protocol. After 3 cycles of splitting at 85% confluence, 2,000 to 50,000 cells were seeded on transparent 96 well plate. Following 24 hours it was decided that optimal conditions would be seeding 35,000 cells per well for assay to be carried out in the following day. […]
KB cancer cells were cultured as described in Materials and Methods, and seeded on both Black and transparent 96 well plates for fluorescence counting and fluorescent microscopy. […] The medium was then washed 3 times with PBS 1 X, and fluorescence associated with the cells in both plates was counted using Analyst HT (Ex 525 nm, Dc 560 nm, Em 595 nm). The net fluorescence was calculated by subtracting the averaged background fluorescence form the fluorescence of the conjugate-treated cells. The transparent plate was further analyzed by fluorescence microscopy.

Di-CD-Glu-PEG3350-FA-RhB [Conjugate 55]
fluorescence of treated cells higher relative to control: 780%
